# Laboratory results published in ChEMBL document CHEMBL1201862, “PubChem BioAssay data set” (2004).
# Active and inactive are the calls of the source.
# What was measured:
# cells [1] = test: cells
# [2] = Luminescence Cell-Based Dose Retest to Confirm Inhibitors of Cancer Stem Cells. [Related pubchem assays (depositor defined):AID2717, AID2721]; assay type: functional; conditions: Homo sapiens
# [3] = Trypanosoma cruzi growth suppression in host cells – NIH3T3 host cells, beta-gal luminescence, confirmation (AID 2044); assay type: functional, cell-based;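 note: intracellular parasites grown in NIH/3T3 mouse fibroblasts as host cells; luminescent beta-galactosidase reporter signal from transgenic T. cruzi replicating inside host cells; inhibitors lower the luminescence signal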
# [4] = NIH3T3 cell viability loss – ATP luminescence, mouse fibroblasts, counter-screen, dose response (AID 2010); assay type: functional, cell-based;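 note: cells exposed to compound for about 90 hours before reading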
# Estrogen receptor = target: T1, Estrogen receptor (Homo sapiens, UniProt P03372);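 note: potency for inhibiting coactivator peptide recruitment to the receptor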
# T1 sequence (P03372 whole entry): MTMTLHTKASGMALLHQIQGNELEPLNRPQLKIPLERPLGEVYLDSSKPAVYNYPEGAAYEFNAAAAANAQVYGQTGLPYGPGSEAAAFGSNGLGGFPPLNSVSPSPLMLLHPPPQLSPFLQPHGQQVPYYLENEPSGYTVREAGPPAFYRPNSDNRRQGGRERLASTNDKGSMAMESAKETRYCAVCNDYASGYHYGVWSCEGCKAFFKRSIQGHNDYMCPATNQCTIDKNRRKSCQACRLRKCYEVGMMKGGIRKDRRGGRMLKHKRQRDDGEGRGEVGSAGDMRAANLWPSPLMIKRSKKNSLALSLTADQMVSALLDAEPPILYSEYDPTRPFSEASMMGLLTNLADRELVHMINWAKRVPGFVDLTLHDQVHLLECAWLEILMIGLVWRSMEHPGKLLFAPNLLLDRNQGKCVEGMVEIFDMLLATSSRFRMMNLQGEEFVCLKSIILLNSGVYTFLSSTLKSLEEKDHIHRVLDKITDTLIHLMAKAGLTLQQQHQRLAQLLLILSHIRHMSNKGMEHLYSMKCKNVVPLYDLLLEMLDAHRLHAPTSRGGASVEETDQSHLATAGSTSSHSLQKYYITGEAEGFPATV
# Cytochrome P450 2C9 = Cytochrome P450 2C9 (Homo sapiens, UniProt P11712)
# Cytochrome P450 2C9, sequence (P11712 whole entry): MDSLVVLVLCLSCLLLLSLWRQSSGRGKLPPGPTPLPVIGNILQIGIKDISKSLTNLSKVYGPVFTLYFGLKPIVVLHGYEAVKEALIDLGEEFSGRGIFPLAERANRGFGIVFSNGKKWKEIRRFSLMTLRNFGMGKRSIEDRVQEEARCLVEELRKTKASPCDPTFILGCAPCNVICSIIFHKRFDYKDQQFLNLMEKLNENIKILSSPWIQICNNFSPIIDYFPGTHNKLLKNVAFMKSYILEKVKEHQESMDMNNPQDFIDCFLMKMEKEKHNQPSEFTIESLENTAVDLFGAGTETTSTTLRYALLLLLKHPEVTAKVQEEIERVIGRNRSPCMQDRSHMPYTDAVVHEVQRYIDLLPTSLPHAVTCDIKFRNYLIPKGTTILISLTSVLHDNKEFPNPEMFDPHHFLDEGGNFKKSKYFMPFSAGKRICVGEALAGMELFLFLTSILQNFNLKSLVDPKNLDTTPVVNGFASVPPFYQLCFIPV
# Cytochrome P450 2D6 = Cytochrome P450 2D6 (Homo sapiens, UniProt P10635);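 note: CYP2D6 member of a cytochrome P450 panel assay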
# Cytochrome P450 2D6, sequence (P10635 whole entry): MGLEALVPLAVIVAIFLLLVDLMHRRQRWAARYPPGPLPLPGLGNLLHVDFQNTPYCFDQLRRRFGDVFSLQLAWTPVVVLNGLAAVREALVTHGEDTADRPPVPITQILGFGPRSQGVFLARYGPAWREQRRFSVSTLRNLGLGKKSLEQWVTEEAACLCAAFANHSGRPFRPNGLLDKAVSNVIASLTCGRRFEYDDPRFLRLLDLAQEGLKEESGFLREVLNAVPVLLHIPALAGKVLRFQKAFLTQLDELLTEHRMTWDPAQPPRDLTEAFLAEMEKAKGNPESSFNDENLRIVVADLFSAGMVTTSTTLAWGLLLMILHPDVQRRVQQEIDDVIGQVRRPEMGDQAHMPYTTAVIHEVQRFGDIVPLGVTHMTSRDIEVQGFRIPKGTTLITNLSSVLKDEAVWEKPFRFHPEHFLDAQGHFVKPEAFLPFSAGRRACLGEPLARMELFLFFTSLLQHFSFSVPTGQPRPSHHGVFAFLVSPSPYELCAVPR
# H9c2 = test: cells; assay type: functional, cell-based; conditions: Rattus norvegicus, H9c2, Myocardium;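 note: confirmatory concentration-response retest of ultra-high-throughput screening hits for modulation of myocardial damage; cell death induced by hydrogen peroxide oxidative stress; compound pretreatment for 60 min then peroxide exposure for 2 h; potency is for protecting the cells against peroxide damage rather than for killing them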
# Streptococcus = test: GAS UMAA2166 growth inhibition – luminescence, BacTiterGlo, counter-screen for streptokinase expression inhibitor project, dose response (AID 1915); assay type: functional, organism-based;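 note: potency for reduction of bacterial viability or growth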
# [5] = fluconazole-exposed Candida albicans growth modulators – fluorescence, retest, confirmation (AID 2467); assay type: functional, cell-based
# [6] = system: Streptococcus sp. 'group A'; test: Streptococcus pyogenes SK(-)GAS viability under kanamycin – luminescence, BacTiterGlo, confirmation, counter-screen for streptokinase expression inhibitor project, dose response (AID 1900); assay type: functional, organism-based
# Streptokinase A = target: T2, Streptokinase A (Streptococcus pyogenes serotype M1, UniProt P10520); test: viability-normalized secreted streptokinase activity reduction – plasminogen activation absorbance, OD405, dose response (AID 1914); assay type: functional, Streptococcus pyogenes M1 GAS;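 note: secreted streptokinase activity via plasminogen activation per viability signal from cell pellet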
# T2 sequence (P10520 whole entry): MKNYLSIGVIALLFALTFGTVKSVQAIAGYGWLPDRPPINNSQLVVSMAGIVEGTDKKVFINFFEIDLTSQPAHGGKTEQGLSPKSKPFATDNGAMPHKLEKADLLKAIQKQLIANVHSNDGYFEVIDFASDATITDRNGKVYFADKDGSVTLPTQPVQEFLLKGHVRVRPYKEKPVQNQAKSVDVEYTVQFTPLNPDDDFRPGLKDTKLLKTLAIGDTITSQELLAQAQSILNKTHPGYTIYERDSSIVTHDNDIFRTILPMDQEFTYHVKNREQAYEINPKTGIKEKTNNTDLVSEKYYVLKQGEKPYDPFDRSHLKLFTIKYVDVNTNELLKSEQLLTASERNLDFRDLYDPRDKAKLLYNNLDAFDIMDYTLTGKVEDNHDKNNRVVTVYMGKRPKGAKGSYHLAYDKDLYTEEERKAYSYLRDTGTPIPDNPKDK
# [7] = NIH-3T3 fibroblast cytotoxicity, dose response, cytotoxicity control, cell-based, fluorescence, Alamar Blue, secondary assay (AID 2327); assay type: functional;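 note: NIH-3T3 mouse fibroblasts cultured with fluconazole at 8 µg/mL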
# [8] = target: T3, Calpain-2 catalytic subunit (Sus scrofa, UniProt P43367); test: m-calpain protease blockers, concentration series – biochemical, fluorogenic peptide substrate, dose response (AID 1420); assay type: functional
# T3 sequence (P43367 whole entry): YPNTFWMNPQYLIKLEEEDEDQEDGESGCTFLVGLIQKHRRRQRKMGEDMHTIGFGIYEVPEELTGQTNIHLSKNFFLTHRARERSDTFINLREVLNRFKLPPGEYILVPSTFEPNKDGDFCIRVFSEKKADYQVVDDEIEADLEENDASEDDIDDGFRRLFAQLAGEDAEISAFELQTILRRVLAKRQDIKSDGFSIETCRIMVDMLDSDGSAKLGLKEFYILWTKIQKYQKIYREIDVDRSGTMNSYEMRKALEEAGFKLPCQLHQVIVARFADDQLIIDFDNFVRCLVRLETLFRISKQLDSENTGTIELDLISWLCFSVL
# [9] = microbe, parasite or virus in culture; assay type: functional; conditions: Mycobacterium tuberculosis
# cells [10] = assay type: functional
# [11] = target: T4, Heat shock factor protein 1 (Mus musculus, UniProt P38532); test: decrease of HSF1-responsive luciferase luminescence – cell-based, NIH3T3, dose retest, confirmation (AID 2382); assay type: functional;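 note: NIH3T3 fibroblasts with HSF1-driven luciferase reporter stressed by proteasome inhibitor MG132; luminescence from HSF1-driven luciferase expression after 8 hours of MG132 stress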
# T4 sequence (P38532 whole entry): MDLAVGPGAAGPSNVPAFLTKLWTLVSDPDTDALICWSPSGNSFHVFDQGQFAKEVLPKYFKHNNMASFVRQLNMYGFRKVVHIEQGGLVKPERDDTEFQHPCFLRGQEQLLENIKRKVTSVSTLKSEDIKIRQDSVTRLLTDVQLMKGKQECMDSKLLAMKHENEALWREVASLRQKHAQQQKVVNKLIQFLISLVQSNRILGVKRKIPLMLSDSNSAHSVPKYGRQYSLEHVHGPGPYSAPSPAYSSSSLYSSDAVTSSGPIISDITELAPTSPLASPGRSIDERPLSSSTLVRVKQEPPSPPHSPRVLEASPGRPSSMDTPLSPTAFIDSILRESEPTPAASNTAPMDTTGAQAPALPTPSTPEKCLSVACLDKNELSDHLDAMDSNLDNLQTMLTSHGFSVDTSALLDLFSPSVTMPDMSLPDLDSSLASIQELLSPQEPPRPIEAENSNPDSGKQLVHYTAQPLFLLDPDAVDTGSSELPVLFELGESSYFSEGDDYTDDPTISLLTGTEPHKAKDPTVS
# Large T antigen = Large T antigen (Simian virus 40, UniProt P03070); assay type: functional, Betapolyomavirus macacae;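 note: Confirmatory-stage PubChem screen for compounds that inhibit SV40 T antigen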
# Large T antigen, sequence (P03070 whole entry): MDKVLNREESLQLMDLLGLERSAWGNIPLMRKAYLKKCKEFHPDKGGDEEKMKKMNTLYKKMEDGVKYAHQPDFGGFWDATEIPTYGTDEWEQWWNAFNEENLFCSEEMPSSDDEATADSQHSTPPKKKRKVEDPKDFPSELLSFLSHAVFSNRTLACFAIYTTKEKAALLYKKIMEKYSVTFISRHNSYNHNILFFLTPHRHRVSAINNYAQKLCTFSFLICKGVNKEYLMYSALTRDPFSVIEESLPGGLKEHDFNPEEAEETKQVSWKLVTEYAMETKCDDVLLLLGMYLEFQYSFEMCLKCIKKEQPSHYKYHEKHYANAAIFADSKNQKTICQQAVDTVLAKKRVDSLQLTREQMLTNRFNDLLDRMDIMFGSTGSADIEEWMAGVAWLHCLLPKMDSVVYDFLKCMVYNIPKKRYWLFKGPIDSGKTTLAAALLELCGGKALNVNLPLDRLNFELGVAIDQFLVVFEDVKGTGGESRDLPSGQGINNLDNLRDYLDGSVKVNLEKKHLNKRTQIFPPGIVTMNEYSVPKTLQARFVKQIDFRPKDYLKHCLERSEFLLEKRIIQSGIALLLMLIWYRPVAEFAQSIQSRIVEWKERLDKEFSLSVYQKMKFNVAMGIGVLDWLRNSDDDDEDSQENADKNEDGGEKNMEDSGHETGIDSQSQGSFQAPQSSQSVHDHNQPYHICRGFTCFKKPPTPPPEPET
# [12] = target: T5, Rac GTPase-activating protein 1 (Homo sapiens, UniProt Q9H0H5); test: blockers of MgcRacGAP-driven Rac1 GTP hydrolysis – biochemical, ADP Hunter fluorescence, primary and confirmatory, confirmation (AID 624330); assay type: functional
# T5 sequence (Q9H0H5 whole entry): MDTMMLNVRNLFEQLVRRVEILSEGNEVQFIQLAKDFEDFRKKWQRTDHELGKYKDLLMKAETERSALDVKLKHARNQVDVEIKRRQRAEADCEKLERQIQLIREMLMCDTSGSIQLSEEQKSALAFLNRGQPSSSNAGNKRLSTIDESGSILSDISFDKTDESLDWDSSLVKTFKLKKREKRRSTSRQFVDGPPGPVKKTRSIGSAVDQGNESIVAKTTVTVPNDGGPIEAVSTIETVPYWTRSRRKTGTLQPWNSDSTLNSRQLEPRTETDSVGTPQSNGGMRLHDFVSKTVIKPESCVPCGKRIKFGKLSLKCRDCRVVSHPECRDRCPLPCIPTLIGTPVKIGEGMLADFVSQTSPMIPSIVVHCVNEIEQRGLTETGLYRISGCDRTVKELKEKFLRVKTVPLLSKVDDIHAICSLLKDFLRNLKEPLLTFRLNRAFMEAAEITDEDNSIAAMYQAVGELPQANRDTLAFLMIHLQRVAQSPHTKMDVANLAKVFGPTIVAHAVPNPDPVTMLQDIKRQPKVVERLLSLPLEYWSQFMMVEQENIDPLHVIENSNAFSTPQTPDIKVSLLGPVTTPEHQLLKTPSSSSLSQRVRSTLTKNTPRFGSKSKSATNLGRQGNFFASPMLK
# [13] = THP-1 cell cytotoxicity, dose response, cytotoxicity control for non-replicating M. tuberculosis project (AID 489025); assay type: functional
structure (smiles),measurement,setting,value
COc1ccccc1CN=C(S)Nc1ccc2nc(N3CCN(C)CC3)cc(C)c2c1,EC50,cells [1],0.129 µM (active)
same,AC50,[2],0.168 µM (active)
same,EC50,[3],< 0.1 µM (active)
same,EC50,[4],> 60 µM (not active)
COc1ccc(Cn2c(N)c(C(=O)NCc3ccco3)c3nc4ccccc4nc32)cc1,IC50,Estrogen receptor,17.3 µM (active)
same,AC50,Cytochrome P450 2C9,1 µM (inconclusive)
same,AC50,Cytochrome P450 2D6,14.1 µM (inconclusive)
Cc1nnc(NC(=O)Cc2cccs2)s1,IC50,Estrogen receptor,19 µM (active)
Cc1ccc(NC(=O)CCCc2nc(O)c3ccccc3n2)c(Cl)c1,IC50,H9c2,25.1 µM (active)
O=C(CC1CC2CCC1C2)Nc1nc(-c2ccccn2)cs1 (centres undefined),IC50,H9c2,> 79 µM (inactive)
same,EC50,Streptococcus,13.2 µM (active)
same,EC50,[5],> 38 µM (not active)
same,EC50,[6],4.21 µM (active)
same,EC50,Streptokinase A,> 150 µM (not active)
same,EC50,[7],> 150 µM (inactive)
Cn1c(=O)c2c3c(sc2n2c(SCC(N)=O)nnc12)CC(C(C)(C)C)CC3 (centres undefined),IC50,[8],42.9 µM (not active)
same,CC50,[9],> 40 µM (active)
Cc1ccc2[nH]c(C)c(CCNC(=O)c3cc4cc([N+](=O)[O-])ccc4oc3=O)c2c1,IC50,cells [10],4.92 µM (active)
same,CC50,[9],> 40 µM (active)
CNS(=O)(=O)c1cc2c3c(cccc3c1)C(=O)NC2=O,IC50,H9c2,16.9 µM (active)
Cc1ccc(NC(=O)c2ccc(Nc3c([N+](=O)[O-])cc([N+](=O)[O-])cc3[N+](=O)[O-])cc2)cc1,EC50,cells [1],0.071 µM (active)
same,EC50,[11],8.29 µM (active)
same,EC50,[3],< 0.1 µM (active)
same,EC50,[4],15.8 µM (active)
Cc1cccc(COc2ccccc2/C=N/Nc2ccc([N+](=O)[O-])cc2)c1,EC50,[5],> 38 µM (not active)
same,EC50,[7],> 150 µM (inactive)
same,CC50,[9],> 40 µM (active)
C=CC(=O)Oc1ccc(N2Cc3ccccc3C2=O)cc1,IC50,Large T antigen,4.45 µM (active)
CO/C(O)=C(/C=N/c1ccc(O)cc1)[N+](=O)[O-],IC50,Large T antigen,62.1 µM (active)
same,IC50,[12],25.5 µM (active)
CCOC(=O)c1nn(-c2cccc(OC)c2)c2nc(Nc3ccccc3)cc(=O)n12,IC50,H9c2,> 79 µM (inactive)
same,EC50,Streptococcus,30 µM (active)
same,EC50,[6],3.12 µM (active)
same,EC50,Streptokinase A,> 150 µM (not active)
Cc1ccc(C(=O)C=CNNC(=O)c2ccccc2)cc1,CC50,[13],> 40 µM (active)
O=C(CN1CCN(c2ccccc2O)CC1)Nc1ccccc1C(=O)NCCc1ccccc1,CC50,[9],> 40 µM (active)
O=C(CCc1nc(O)c2ccccc2n1)NNC(=O)c1ccc(F)cc1,IC50,H9c2,> 79 µM (inactive)
CC1CCC2(CC1)NC(=O)N(CC(=O)c1ccc[nH]1)C2=O (centres undefined),IC50,Estrogen receptor,> 50 µM (not active)
O=C(CC(Sc1ccc(Br)cc1)C(=O)O)c1ccc(Br)cc1 (centres undefined),IC50,Large T antigen,49.4 µM (active)
CC(C)(C)NC(=O)C(c1c[nH]c2ccccc12)N(C(=O)Cn1nnc(-c2ccc(F)cc2)n1)c1cccc(O)c1 (centres undefined),CC50,[9],> 40 µM (active)
CCn1cnc2cc(NCc3cccc(OC)c3O)ccc21,IC50,Large T antigen,13.3 µM (active)
CCOC(=O)C1CCCN(C(=O)CCC(=O)Nc2ccc3nc(N4CCOCC4)cc(C)c3c2)C1 (centres undefined),IC50,H9c2,> 79 µM (inactive)
COc1ccc(-c2nnn(CC(=O)OC3CCCCC3)n2)cc1OC,IC50,cells [10],11.6 µM (active)
same,CC50,[13],> 40 µM (active)
N#CSCC(=O)N1c2ccccc2CCc2ccccc21,IC50,Large T antigen,22 µM (active)
O=C(N/N=C/c1ccc(O)c(O)c1)c1cc(-c2ccccc2)nc2ccccc12,IC50,Large T antigen,54.1 µM (active)
N#Cc1c(SCC(=O)Nc2nccs2)nc2c(c1-c1ccco1)CCCC2,IC50,Estrogen receptor,> 50 µM (not active)
same,EC50,[11],> 195 µM (not active)
Cc1ccc2sc(N(CCCN(C)C)C(=O)c3ccc(S(=O)(=O)N4CCOCC4)cc3)nc2c1C,EC50,cells [1],0.408 µM (active)
same,EC50,[3],< 0.1 µM (active)
same,EC50,[4],> 60 µM (not active)
C/C(=N\NC(=O)CSc1nc2ccccc2o1)c1ccc(O)cc1,IC50,Large T antigen,18.9 µM (active)
same,IC50,[12],86.9 µM (active)
O=C(N/N=C/c1ccccn1)c1[nH]c2ccc([N+](=O)[O-])cc2c1-c1ccccc1,IC50,H9c2,> 79 µM (inactive)
CC(OC(=O)Cc1nnc(O)c2ccccc12)C(=O)Nc1ccc(F)cc1Cl (centres undefined),IC50,H9c2,15.4 µM (active)
O=C(CSc1nnc(-c2ccco2)[nH]1)Nc1sc2c(c1C(=O)Nc1ccccc1)CCCC2,IC50,Estrogen receptor,40 µM (not active)
O=C(Nc1cccc(-c2nc3ccccc3s2)c1)c1cc(-n2cnnc2)ccc1Cl,EC50,[5],2.98 µM (active)
same,EC50,[7],20.3 µM (inconclusive)
same,CC50,[9],> 40 µM (active)
